Test [1] relates to SHR rats (spontaneous hypertensive rats). The test can be described thus: SHR rats treated 14 days: plasma triglycerides, arterial pressure, response to angiotensin II. The test is classed as in vivo, rat. The method, then:
SHR rats (spontaneous hypertensive rats) (male sex—300-320 g—16-weeks old—Charles River France) were kept on a light/dark cycle of 12/12 hours at a constant temperature of 20±3° C. The compounds according to the invention being tested were suspended in carboxymethylcellulose (Sigma c4888) and administered to the animals by intra-gastric gavage, once a day for 14 days at the chosen doses. The animals had free access to food and water.
At the end of the experiment, after a 5-hour fast, the animals were anesthetized for surgery with pentobarbital (50 mg/kg). A catheter treated with heparin was placed in the carotid artery to measure arterial pressure. A second catheter was placed in the jugular vein to administer angiotensin II. Arterial pressure was measured and recorded at basal tone for 15 minutes. At this stage, the average arterial pressure of the control animals is compared to that of the animals having received the compounds according to the invention. After 15 minutes, three successive intravenous administrations of angiotensin II (50 ng/kg) were performed to evaluate the response to angiotensin II of animals treated with the compounds according to the invention.
At the end of the arterial pressure measurements, a blood sample was taken using anticoagulant (EDTA), then the animals were euthanized. The plasma was separated by centrifugation at 3000 rotations/minute for 20 minutes. The samples were kept at +4° C.
Plasma total concentrations of cholesterol, triglycerides, free fatty acids, and glucose were measured by enzymatic assays (bioMerieux-Lyon-France and Wako-Japan) according to the provider's recommendations.

The next test deals with T1, hPPARγ (Homo sapiens, UniProt P37231).
T1 construct: DNA fragments amplified by PCR and corresponding to the DEF domains of human PPARα, PPARγ, and PPARδ nuclear receptors; expressed in transfected cells; host or cells: COS-7
T1 sequence (P37231 238-503 limits assumed): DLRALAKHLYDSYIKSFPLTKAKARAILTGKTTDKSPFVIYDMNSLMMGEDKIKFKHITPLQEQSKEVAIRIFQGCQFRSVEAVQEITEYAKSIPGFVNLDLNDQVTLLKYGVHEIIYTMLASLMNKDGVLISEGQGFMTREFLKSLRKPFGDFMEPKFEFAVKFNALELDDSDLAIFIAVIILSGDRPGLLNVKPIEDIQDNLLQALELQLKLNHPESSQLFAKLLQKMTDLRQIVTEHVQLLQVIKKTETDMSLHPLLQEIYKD
The test can be described thus: Gal4-hPPARγ transactivation in COS-7 cells (luciferase). To be noted: for EC50: Gal4-hPPARγ chimera, COS-7 cells, 24 hours. The test is classed as cell-based. The method, then: (§1) The activation of PPARs was evaluated in vitro using a monkey kidney fibroblast line (COS-7) by measuring the transcriptional activity of chimeras made up of the DNA binding domain of the Gal4 transcription factor of yeast and of the binding domain to the ligand of the different PPARs. The compounds were tested at doses of between 0.01 and 100 μM on Gal4-PPARα, γ, and δ chimeras.
(§2) COS-7 cells came from ATCC (American type culture collection) and were cultivated in a DMEM medium supplemented with 10% (vol/vol) of fetal calf serum, 100 U/ml of penicillin (Gibco, Paisley, UK) and 2 mM of L-Glutamine (Gibco, Paisley, UK). The cells were incubated at 37° C. under humid atmosphere containing 5% CO2.
(§3) The plasmids Gal4(RE)_TkpGL3, pGal4-hPPARα, pGal4-hPPARγ, pGal4-hPPARδ and pGal4-φ have been described in the literature (Raspe E et al., 1999). The constructions pGal4-hPPARα, pGal4-hPPARγ, and pGal4-hPPARδ were obtained by cloning, in the pGal4-φ vector, DNA fragments amplified by PCR and corresponding to the DEF domains of human PPARα, PPARγ, and PPARδ nuclear receptors.
(§4) The COS-7 cells in suspension were transfected with 150 ng of DNA per well, with a pGal4-PPAR/Gal4(RE)_TkpGL3 ratio of 1/10, in presence of 10% fetal calf serum. The cells were then plated in 96-well plates (4×10^4 cells/well), then incubated for 24 hours at 37° C. Activation with the test compounds was performed for 24 hours at 37° C. in a medium without serum. At the end of the experiment, the cells were lysed and the luciferase activity was determined using the Steady-Lite™ HTS (Perkin Elmert) or the Steady Glow Luciferase kit (Promega), in accordance with the provider's recommendations.
(§5) The compounds according to the invention were tested at doses between 0,01 and 100 μM on the 3 PPAR isoforms. The results obtained are presented in detail under FIG. 1a.

For a further test, the target named is T2, hPPARα (Homo sapiens, UniProt Q07869).
T2 construct: DNA fragments amplified by PCR and corresponding to the DEF domains of human PPARα, PPARγ, and PPARδ nuclear receptors; expressed in transfected cells; host or cells: COS-7
T2 sequence (Q07869 239-466 limits assumed): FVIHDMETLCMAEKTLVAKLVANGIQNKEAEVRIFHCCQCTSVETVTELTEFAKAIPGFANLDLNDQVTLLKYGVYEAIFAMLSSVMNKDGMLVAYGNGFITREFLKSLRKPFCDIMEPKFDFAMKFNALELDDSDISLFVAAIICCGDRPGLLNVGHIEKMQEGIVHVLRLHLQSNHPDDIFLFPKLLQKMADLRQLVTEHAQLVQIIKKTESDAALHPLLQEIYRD
Briefly: Gal4-hPPARα transactivation in COS-7 cells (luciferase). The test is classed as cell-based. The settings on record: for EC50: Gal4-hPPARα chimera, COS-7 cells, 24 hours. Here is the method:
as §1, §2, §3, §4, §5

The mark [2] stands for this setting: COS-7 cells transfected pGal4-hPPAR, 0.01 to 100 μM.

Experimental findings from patent publication US20100004159A1, “SUBSTITUTED IMIDAZOLONE DERIVATIVES, PREPARATIONS AND USES” (GENFIT, priority 2006, published 2010) are described below.

As to `CCCCC1=NC2(CCCC2)C(=O)N1Cc1ccc(-c2cccc(OC(C)(C)C(=O)O)c2)cc1` [Compound 1, 2-butyl-1-[(3′-((1-carboxy-1,1-dimethylmethyl)oxy)biphenyl-4-yl)methyl]-4-spirocyclopentyl-1H-imidazol-5(4H)-one], the “arterial pressure before administrations of angiotensin II” value in test [1] (14 days of treatment, 150 mpk) is recorded as “antihypertensive effect”. For the same compound, in test [1] (14 days of treatment, 150 mpk, intra-gastric), the plasma triglyceride rate entry is reported as “unexpectedly decreased”. For the same compound, the “hypertension induced by angiotensin II (difference of arterial pressure)” value in test [1] (14 days of treatment, 150 mpk, three intravenous administrations of angiotensin II 50 ng/kg) was “significant antagonist effect on angiotensin II”. Further, the “activation of hPPARγ (luciferase activity)” value at hPPARγ (setting [2]) is on record as “activate the two PPAR isoforms”. For the same compound, the EC50 was determined as 8000 nM at hPPARγ and 3000 nM on hPPARα. The “activation of hPPARα (luciferase activity)” value on hPPARα (setting [2]) is given as “activate the two PPAR isoforms”.
Consider `CCCCC1=NC2(CCCCC2)C(=O)N1Cc1ccc(-c2cccc(OC(C)(C)C(=O)O)c2)cc1` [Compound 21, 2-butyl-1-[(3′-((1-carboxy-1,1-dimethylmethyl)oxy)biphenyl-4-yl)methyl]-4-spirocyclohexyl-1H-imidazol-5(4H)-one], for which the “hypertension induced by angiotensin II (difference of arterial pressure)” value in test [1] (chronic treatment, 100 mpk, repeated administrations of angiotensin II) is listed as “significant antagonist effect on angiotensin II”. Moreover, the EC50 at hPPARγ is 1000 nM; at hPPARα it was 600 nM.

Usually EC50 stands for the concentration at which the effect is half-maximal. Low readings indicate higher potency in that assay, high ones lower potency in that assay.
